Results taken from PMC8348310, “Antioxidants Isolated from Elaeagnus umbellata (Thunb.) Protect against Bacterial Infections and Diabetes in Streptozotocin-Induced Diabetic Rat Model” (Molecules, 2021).

Assays:
Assay type in all cases: in vivo, Sprague Dawley adult albino rats
Acute toxicity study = conditions: oral 50, 100, 150, 200, 250, 300, and 500 mg/kg body weight; observed 4 h, 24 h to 1 week
Description: (§1) Sprague Dawley adult albino rats (body weight range = 170–200 g) were used in in vivo studies. The animals were purchased from Rifah Institute of Pharmaceutical Sciences Islamabad. The entire animals were given food and fresh water ad libitum. The animals were adjusted at room temperature around 22–25 °C. The animals were housed three rats per cage and maintained with light/dark cycle of about 12 h. All the in vivo procedures were carried out according to the ARRIVE guidelines and approval was taken from the Departmental Animal Ethical Committee (DAEC/2019/1), University of Malakand.
For acute toxicity study all the animals were treated orally with different doses (50, 100, 150, 200, 250, 300, and 500 mg/kg body weight) of isolated compound morin. After that the animals were kept under observation for 4 h for signs of toxicity (respiratory aches, convulsions, motor activity, tremors, muscle spasm, sedation, diarrhea, loss of righting reflex, hypnosis, and salivation). All the animals appeared healthy for 24 h to 1 week with no noticeable changes in appearance or behavior, and no signs of mortality were noticed. […]

[1] = system: STZ-induced diabetic rats; assay: STZ-induced diabetic rat model: fasting blood glucose and body weight
Description: as §1
(§2) All the animals were separated into nine groups having eight animals each (Table 1). In the current investigational study STZ-induced diabetic model was used to evaluate the anti-hyperglycemic and anti-hyperlipidemic activity of isolated compound morin in chronic multiple dose experiment. All the animals were treated with their respective treatments for 21 days starting daily at 09:00 am. The fasting blood glucose levels were determined at 0, 4th, 7th, 10th, 15th, and 21st days with glucometer from the tail vein. Changes in the body weight were recorded for untreated control, diabetic, and treated groups in fasting condition from day 1 to day 21 of experimental period and are presented as % increase in body weight.
(§3) According to the reported protocol diabetes was induced into Sprague Dawley adult albino rats by intraperitoneal injection of STZ (50 mg/kg body weight). Blood samples were collected from the tail vein through glucometer strips by means of SD glucometer and the level of blood glucose was measured 72 h after STZ injection. Normal control groups were given normal saline (8 mL/kg, p.o.) as a vehicle, while isolated compound morin to the treatment groups from 3 days after STZ administration for 3 weeks. Animals with blood glucose levels higher than 300 mg/dL were considered diabetic. During the experiment the blood glucose level and body weights were measured.

[2] = system: STZ-induced diabetic rats; assay: STZ-induced diabetic rat model: serum biochemical parameters (liver, renal, lipid profile, HbA1c)
Description: as §2, §3
On 21st day of in vivo antidiabetic activity, all the animals were anesthetized by intraperitoneal (IP) injection of pentobarbital sodium (35 mg/kg body weight) and euthanized by means of cervical decapitation according to the ARRIVE guidelines. Blood samples were collected by cardiac puncture and transferred to EDTA containing tubes. Blood was centrifuged at 3500 rpm for 10 min for the separation of serum. Biochemical parameters like serum alkaline phosphatase (ALP), serum glutamate pyruvate transaminase (SGPT), serum glutamate oxaloacetate transaminase (SGOT) and lipid parameters like total cholesterol (TC), triglycerides (TG), low-density lipoproteins (LDL), high-density lipoprotein (HDL), and serum creatinine in serum were assessed by using Biochemistry analyzer (PS-520; Shenzhen Procan Electronics-China) using diagnostic kits (Reactivos, GPL Barcelona, Spain). According to the reported protocol an enzyme-linked immunosorbent assay (ELISA) kit was used to evaluate the level of glycosylated hemoglobin (HbA1c).

[3] = system: STZ-induced diabetic rats; assay: Ex vivo DPPH scavenging of pancreas tissue homogenates (intracellular ROS level); set-up: dose or concentration left out as unconfirmed
Description: The pancreas tissue (1 g) was isolated from Sprague Dawley rats, washed with cold saline solution and blotted dried. A weighed portion of the pancreas tissue was homogenized on ice and then centrifuged for 15 min at 3500 rpm at 4 °C. The supernatant was then taken and stored at −20 °C until assessed for different enzymes.
Cellular oxidative stress due to the overproduction of reactive oxygen species (ROS) generated by streptozotocin was measured in pancreas tissues through DPPH free radical scavenging assays. Briefly, 50 µL (0.3 mM) DPPH in methanol was incubated with 100 µL supernatant of the tissue homogenates of each experimental group and […] in the dark for 30 min at room temperature. Ascorbic acid was used as the standard. The absorbance was then read against a blank at 517 nm. The percentage scavenging was calculated according to the equation No 1.

[4] = system: STZ-induced diabetic rats; assay: Pancreas histopathological assessment (H & E)
From the text: For histopathological assessment, the pancreas tissues were removed immediately and washed with cold saline solution to remove the blood. Finally, the pancreas portions were fixed in 10% formalin, dehydrated with mixture of ethanol/xylene and then fixed with paraffin. Staining of tissue slides was done with hematoxylin and eosin (H & E) dye through automatic slide stainer (Sakura Tissue-Tek® DRS™ 2000; Tokyo, Japan). According to the reported assay, the stained slides were observed under microscope to see any variation in pancreatic tissue architecture of STZ-induced diabetic group and treated (glibenclamide/morin) groups.

[5] = glibenclamide 0.5 mg/kg, morin 15, 30, and 50 mg/kg, vs diabetic control rats
[6] = glibenclamide 5 mg/kg, morin 15, 30, and 50 mg/kg body weight, serum, day 21, vs diabetic control

**Q.** Which “acute toxicity (signs of toxicity, mortality)” value (Acute toxicity study) does the source give for `O=c1c(O)c(-c2ccc(O)cc2O)oc2cc(O)cc(O)c12` [Morin, 2-(2,4-Dihydroxyphenyl)-3,5,7-trihydroxychromen-4-one] here?
**A.** The value was “safe and nontoxic up to 500 mg/kg body weight”.

**Q.** What about the body weight gain ([1]; morin 10 mg/kg body weight) of the same molecule?
**A.** Its body weight gain is “significant (p < 0.01) increases”.

**Q.** What about the blood glucose level ([1]; morin 2 and 5 mg/kg body weight) of the same molecule?
**A.** Its blood glucose level is “slowly reduce blood glucose level”.

**Q.** And the glucose level ([1]; morin 10, 15, 30, and 50 mg/kg body weight, compared to the diabetic control group)?
**A.** Its glucose level is “comparable decline in glucose level”.

**Q.** And the body weight gain ([1]; morin 15, 30, and 50 mg/kg body weight)?
**A.** Its body weight gain is “significant (p < 0.001) improvement”.

**Q.** And the blood glucose level ([1]; morin oral 30, 15, 50 mg/kg body weight, vs diabetic control)?
**A.** The blood glucose level was “significant (p ˂ 0.01) decrease”.

**Q.** What about the HDL cholesterol [2, 5] of the same molecule?
**A.** Its HDL cholesterol is “significantly increased (p < 0.01)”.

**Q.** And the HbA1c level [2, 5]?
**A.** Its HbA1c level is “significant decrease (p < 0.01; p < 0.001)”.

**Q.** And the LDL level [2, 5]?
**A.** The LDL level was “significant decrease (p < 0.01; p < 0.001)”.

**Q.** And the TC level [2, 5]?
**A.** Its TC level is “significant decrease (p < 0.01; p < 0.001)”.

**Q.** And the TG level [2, 5]?
**A.** Its TG level is “significant decrease (p < 0.01; p < 0.001)”.

**Q.** What about the serum creatinine level ([2]; glibenclamide 5 mg/kg, morin 15, 30, and 50 mg/kg body weight, day 21, vs diabetic control) of the same molecule?
**A.** Its serum creatinine level is “significantly reduced (p < 0.01; p < 0.001)”.

**Q.** And the ALP level [2, 6]?
**A.** The ALP level was “significantly reduced (p < 0.01; p < 0.001)”.

**Q.** What about the SGOT level [2, 6] of the same molecule?
**A.** The SGOT level was “significantly reduced (p < 0.01; p < 0.001)”.

**Q.** And the SGPT level [2, 6]?
**A.** The SGPT level was “significantly reduced (p < 0.01; p < 0.001)”.

**Q.** And the “% DPPH inhibition activity in the pancreas tissues” value (from here on “% DPPH inhibition activity”) ([3]; morin 2 treated group, diabetic control 22.41 ± 4.25)?
**A.** The value was 49.88 ± 3.21%.

**Q.** And the “% DPPH inhibition activity” value ([3]; morin 5 treated group)?
**A.** Its value is 52.66 ± 2.81%.

**Q.** What about the “% DPPH inhibition activity” value ([3]; morin 10 treated group) of the same molecule?
**A.** The value was 60.42 ± 2.12%.

**Q.** What about the “% DPPH inhibition activity” value ([3]; morin 15 treated group) of the same molecule?
**A.** The value was 65.33 ± 22.13%.

**Q.** What about the “% DPPH inhibition activity” value ([3]; morin 30 treated group) of the same molecule?
**A.** Its value is 69.33 ± 3.12%.

**Q.** What about the “% DPPH inhibition activity” value ([3]; morin 50 treated group) of the same molecule?
**A.** Its value is 71.42 ± 3.23%.

**Q.** And the pancreas histopathology ([4]; morin 2, 5 mg/kg orally)?
**A.** The pancreas histopathology was “did not show restoration of pancreatic tissue”.

**Q.** What about the pancreas histopathology ([4]; morin 10, 15 mg/kg orally) of the same molecule?
**A.** The pancreas histopathology was “significant dose dependent improvement in cellular architecture”.

**Q.** And the pancreas histopathology ([4]; morin 30, 50 mg/kg orally)?
**A.** The pancreas histopathology was “normal histological pattern of pancreas”.
